Measurements from patent publication US20240336608A1, “IL4I1 INHIBITORS AND METHODS OF USE” (Merck Sharp & Dohme LLC, priority 2023, published 2024).

Target: T1, recombinant IL4I1 (Homo sapiens, UniProt Q96RQ9)
T1 construct: purchased R&D Systems 5684-AO-020
T1 sequence (Q96RQ9 22-567): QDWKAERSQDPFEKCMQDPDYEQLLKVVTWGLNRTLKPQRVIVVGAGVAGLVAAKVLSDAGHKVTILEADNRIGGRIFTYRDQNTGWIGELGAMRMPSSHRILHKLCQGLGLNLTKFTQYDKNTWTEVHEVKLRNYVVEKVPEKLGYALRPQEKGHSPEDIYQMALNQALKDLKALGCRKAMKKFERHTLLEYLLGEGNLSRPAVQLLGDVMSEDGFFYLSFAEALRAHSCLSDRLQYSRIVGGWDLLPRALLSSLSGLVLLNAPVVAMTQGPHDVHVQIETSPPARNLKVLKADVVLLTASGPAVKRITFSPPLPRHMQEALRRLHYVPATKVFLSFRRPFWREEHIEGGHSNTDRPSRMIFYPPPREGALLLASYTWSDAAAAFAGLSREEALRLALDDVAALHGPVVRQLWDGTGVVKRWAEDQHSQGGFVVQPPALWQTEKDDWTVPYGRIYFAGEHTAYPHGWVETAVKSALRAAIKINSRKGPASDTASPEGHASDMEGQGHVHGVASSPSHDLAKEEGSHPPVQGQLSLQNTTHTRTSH
Assay: IL4I1 Enzymatic Assay (Amplex Red/HRP coupled detection of H2O2, fluorescence)
Type: biochemical
Settings: 1 nM recombinant IL4I1; four-hour pre-incubation with compound; 1 mM each Phe, Tyr, Trp; ten-point titration
How it was run: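 Recombinant IL4I1 (1 nM final) pre-incubated 4 h at ambient temperature with compound (0.5% DMSO) in 50 mM Hepes pH 7.0, 0.005% Tween20; reaction started with 1 mM each Phe/Tyr/Trp plus excess Amplex Red/HRP, run 120 min. H2O2 read as resorufin fluorescence; EC50 from 10-point four-parameter fit.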

Row | Compound | EC50 [nM]
1 | Cc1ccc(-n2cc(C(=O)NCc3nnc(-c4ccc(F)cc4F)s3)nn2)c(C)n1 [Example 105, N-((5-(2,4-difluorophenyl)-1,3,4-thiadiazol-2-yl)methyl)-1-(2,6-dimethylpyridin-3-yl)-1H-1,2,3-triazole-4-carboxamide] | 909
2 | Cc1ccc(-n2cc(C(=O)NCc3cc(-c4cccc(Cl)c4)no3)nn2)c(C)n1 [Example 221, N-{[3-(3-chlorophenyl)-1,2-oxazol-5-yl]methyl}-1-(2,6-dimethylpyridin-3-yl)-1H-1,2,3-triazole-4-carboxamide] | 722
3 | Cc1nc(C(N)=O)ccc1-n1cc(C(=O)NCc2nnc(-c3ccccc3)s2)nn1 [Example 333, 6-methyl-5-(4-(((5-phenyl-1,3,4-thiadiazol-2-yl)methyl)carbamoyl)-1H-1,2,3-triazol-1-yl)picolinamide] | 6
4 | Cc1onc(C(=O)NCc2nnc(-c3ccccc3)s2)c1C [Example 24, 4,5-dimethyl-N-[(5-phenyl-1,3,4-thiadiazol-2-yl)methyl]isoxazole-3-carboxamide] | 93
5 | NC(=O)Cn1cc(C(=O)NCc2nnc(-c3ccccc3)s2)nn1 [Example 70, 1-(2-amino-2-oxoethyl)-N-((5-phenyl-1,3,4-thiadiazol-2-yl)methyl)-1H-1,2,3-triazole-4-carboxamide] | 5
6 | Cc1nc(C)c(-n2cc(C(=O)NCc3nnc(-c4ccccc4)s3)nn2)s1 [Example 212, 1-(2,4-dimethylthiazol-5-yl)-N-((5-phenyl-1,3,4-thiadiazol-2-yl)methyl)-1H-1,2,3-triazole-4-carboxamide] | 882
7 | COc1c(C(=O)NCc2nnc(-c3ccccc3)s2)csc1Cl [Example 41, 5-chloro-4-methoxy-N-[(5-phenyl-1,3,4-thiadiazol-2-yl)methyl]thiophene-3-carboxamide] | 59
8 | O=C(NCc1nnc(-c2ccccc2)s1)c1cn(Cc2ccccc2)nn1 [Example 241, 1-benzyl-N-((5-phenyl-1,3,4-thiadiazol-2-yl)methyl)-1H-1,2,3-triazole-4-carboxamide] | 11
9 | Cc1ccc(-n2cc(C(=O)NCc3nnc(-c4cn[nH]c4)s3)nn2)c(C)n1 [Example 300, N-((5-(1H-pyrazol-4-yl)-1,3,4-thiadiazol-2-yl)methyl)-1-(2,6-dimethylpyridin-3-yl)-1H-1,2,3-triazole-4-carboxamide] | 22
10 | O=C(NCc1nnc(-c2ccccc2)s1)c1cn(C2CCCC(O)C2)nn1 (stereo not shown) [Example 206, 1-(3-hydroxycyclohexyl)-N-((5-phenyl-1,3,4-thiadiazol-2-yl)methyl)-1H-1,2,3-triazole-4-carboxamide] | 226
11 | O=C(NCc1nnc(-c2ccccc2)s1)c1cn(-c2ccncn2)nn1 [Example 309, N-((5-phenyl-1,3,4-thiadiazol-2-yl)methyl)-1-(pyrimidin-4-yl)-1H-1,2,3-triazole-4-carboxamide] | 720
12 | C[C@H]1OCC[C@H]1Cn1cc(C(=O)NCc2nnc(-c3ccccc3)s2)nn1 [Example 205, 1-(((2R,3S)-2-methyltetrahydrofuran-3-yl)methyl)-N-((5-phenyl-1,3,4-thiadiazol-2-yl)methyl)-1H-1,2,3-triazole-4-carboxamide] | 33
13 | O=C(NCc1nnc(-c2ccccc2)s1)c1cn(-c2cn[nH]c2)nn1 [Example 287, N-((5-phenyl-1,3,4-thiadiazol-2-yl)methyl)-1-(1H-pyrazol-4-yl)-1H-1,2,3-triazole-4-carboxamide] | 9
14 | O=C(NCc1nnc(-c2ccccc2)s1)c1cn(CC2(F)CCC2)nn1 [Example 135, 1-((1-fluorocyclobutyl)methyl)-N-((5-phenyl-1,3,4-thiadiazol-2-yl)methyl)-1H-1,2,3-triazole-4-carboxamide] | 100
15 | CNC(=O)Cn1cc(C(=O)NCc2nnc(-c3ccccc3)s2)nn1 [Example 81, 1-(2-(methylamino)-2-oxoethyl)-N-((5-phenyl-1,3,4-thiadiazol-2-yl)methyl)-1H-1,2,3-triazole-4-carboxamide] | 6
16 | CC1(n2cc(C(=O)NCc3nnc(-c4ccccc4)s3)nn2)CS(=O)(=O)C1 [Example 178, 1-(3-methyl-1,1-dioxidothietan-3-yl)-N-((5-phenyl-1,3,4-thiadiazol-2-yl)methyl)-1H-1,2,3-triazole-4-carboxamide] | 267
17 | CCn1cc(C(=O)NCc2nnc(-c3ccccc3)s2)nn1 [Example 72, 1-ethyl-N-((5-phenyl-1,3,4-thiadiazol-2-yl)methyl)-1H-1,2,3-triazole-4-carboxamide] | 3
18 | CCOCCn1cc(C(=O)NCc2nnc(-c3ccccc3)s2)nn1 [Example 91, 1-(2-ethoxyethyl)-N-((5-phenyl-1,3,4-thiadiazol-2-yl)methyl)-1H-1,2,3-triazole-4-carboxamide] | 27
19 | CC(NC(=O)c1cn(CC(F)F)nn1)c1ccc(-c2ccccc2)nn1 (single isomer, unassigned) [Example 348, 1-(2,2-difluoroethyl)-N-(1-(6-phenylpyridazin-3-yl)ethyl)-1H-1,2,3-triazole-4-carboxamide] | 880
20 | CC(=O)N1CC(n2cc(C(=O)NCc3nnc(-c4ccccc4)s3)nn2)C1 [Example 102, 1-(1-acetylazetidin-3-yl)-N-((5-phenyl-1,3,4-thiadiazol-2-yl)methyl)-1H-1,2,3-triazole-4-carboxamide] | 296
21 | O=C(NCc1nnc(-c2ccccc2)s1)c1cn(Cc2cn[nH]c2)nn1 [Example 164, 1-((1H-pyrazol-4-yl)methyl)-N-((5-phenyl-1,3,4-thiadiazol-2-yl)methyl)-1H-1,2,3-triazole-4-carboxamide] | 17
22 | C[C@H](O)[C@H](CO)n1cc(C(=O)NCc2nnc(-c3ccccc3)s2)nn1 [Example 186, 1-((2S,3S)-1,3-dihydroxybutan-2-yl)-N-((5-phenyl-1,3,4-thiadiazol-2-yl)methyl)-1H-1,2,3-triazole-4-carboxamide] | 274
23 | CCn1ccc(C(=O)NCc2nnc(-c3ccccc3)s2)n1 [Example 52, 1-ethyl-N-[(5-phenyl-1,3,4-thiadiazol-2-yl)methyl]pyrazole-3-carboxamide] | 128
24 | O=C(NCc1nnc(-c2ccccc2)s1)c1cc2n(n1)CCC2 [Example 48, N-[(5-phenyl-1,3,4-thiadiazol-2-yl)methyl]-5,6-dihydro-4H-pyrrolo[1,2-b]pyrazole-2-carboxamide] | 237
25 | Cc1ccc(-n2cc(C(=O)NCc3ccc(-c4ccsc4)nn3)nn2)c(C)n1 [Example 118, 1-(2,6-dimethylpyridin-3-yl)-N-((6-(thiophen-3-yl)pyridazin-3-yl)methyl)-1H-1,2,3-triazole-4-carboxamide] | 31
26 | Cn1cc(C(=O)NCc2cc(-c3ccccc3)no2)nn1 [Example 218, 1-methyl-N-[(3-phenyl-1,2-oxazol-5-yl)methyl]-1H-1,2,3-triazole-4-carboxamide] | 184
27 | Cc1ccc(-n2cc(C(=O)NCc3ccc(-c4cc(F)ccc4F)nn3)nn2)c(C)n1 [Example 123, N-((6-(2,5-difluorophenyl)pyridazin-3-yl)methyl)-1-(2,6-dimethylpyridin-3-yl)-1H-1,2,3-triazole-4-carboxamide] | 223
28 | O=C(NCc1nnc(-c2ccccc2)s1)c1cn(Cc2ccncc2)nn1 [Example 99, N-((5-phenyl-1,3,4-thiadiazol-2-yl)methyl)-1-(pyridin-4-ylmethyl)-1H-1,2,3-triazole-4-carboxamide] | 21
